Results as given in patent publication US10736974B2, “Scaffolds and multifunctional intermediates for imaging PSMA and cancer therapy” (THE JOHNS HOPKINS UNIVERSITY, priority 2014, dated 2020).
Entries after “also recorded” stand apart in the source; their conditions may differ.

What was measured:
[1] = system: PSMA+ PC-3 PIP and PSMA- PC-3 flu tumors; test: PET-CT imaging of NOD/SCID mice bearing PSMA+ PC-3 PIP and PSMA- PC-3 flu tumors; assay type: in vivo
Description: FIG. 8A, FIG. 8B, FIG. 8C, and FIG. 8D show positron emission tomography-computed tomography (PET-CT) images in male NOD-SCID mice injected with the radiolabeled [^18F]XY-20 compound at (FIG. 8A) 5-15 minutes, (FIG. 8B) 15-25 minutes, (FIG. 8C) 25-35 minutes and (FIG. 8D) 50-60 minutes after injection; the mice on the right in each panel were pretreated with ZJ43 and the mice on the left in each panel were not pretreated with ZJ43. The green arrows point to the PSMA-negative PC3-flu tumor and the red arrows point to the PSMA-expressing (PC3-PIP) tumor (target); 200 microCi of radiotracer was injected;
Dynamic and whole-body PET and CT images were acquired on an eXplore VISTA small-animal PET (GE Healthcare) and an X-SPECT small SPECT/CT system (Gamma Medica Ideas), respectively. For imaging studies, anesthesia was induced with 3% and maintained under 1.5% isoflurane (v/v) in oxygen. PET or PET-CT imaging studies were performed on NOD/SCID mice bearing PSMA+PC-3 PIP and PSMA-PC-3 flu tumors. Following intravenous injection of [^18F]12 ([^18F]XY-20) PET images were acquired at 10 min, 30 min, 1 h, 2 h and 4 h p.i. as a pseudodynamic scan, i.e., a sequence of successive whole-body images were acquired in two bed positions. The dwell time at each bed position was 10 min for a total scan time of 20 minutes. An energy window of 250-700 keV was used. […]

[2] = system: PSMA+ PC-3 PIP and PSMA- PC-3 flu tumors; test: Ex vivo biodistribution in mice bearing PSMA+ PC-3 PIP and PSMA- PC-3 flu xenografts; conditions: for Biodistribution, PC-3 Pip tumor: PSMA+ PC-3 PIP tumor; for Biodistribution, PC-3 flu tumor: PSMA- PC-3 flu tumor; for Biodistribution, Lrg int.: large intestine; for Biodistribution, Sm. int.: small intestine
PC-3 PIP (PSMA+) cells = test: In vitro stability studies (TLC of radiometabolites) in PC-3 PIP and PC-3 flu cells; conditions: 30 minutes incubation, PC-3 PIP vs PC-3 flu cells

SMILES: O=C(O)CC[C@H](NC(=O)O[C@@H](CCCCNC(=O)c1ccc([18F])cc1)C(=O)O)C(=O)O [[^18F]12]
- tumor uptake on co-injection with an excess of competing inhibitor ZJ-43 [1]: complete blockade of tumor uptake
- tumor and kidney uptake and clearance (pharmacokinetics in words) ([2]; PC-3 PIP tumor mice): modest PSMA+PC-3 PIP tumor uptake but rapidly cleared from both PC-3 PIP tumor and normal tissues including kidneys
- Biodistribution, PC-3 Pip tumor ([2]; 30 min, N = 7): 6.33±1.55 percent injected dose/gram
- Biodistribution, PC-3 Pip tumor ([2]; 60 min, N = 4): 3.52 ± 1.48 percent injected dose/gram
- Biodistribution, PC-3 Pip tumor ([2]; 90 min, N = 4): 0.94 ± 0.24 percent injected dose/gram
- Biodistribution, PC-3 Pip tumor ([2]; 180 min, N = 4): 0.22 ± 0.07 percent injected dose/gram
- Biodistribution, PC-3 flu tumor ([2]; 30 min, N = 7): 1.89 ± 0.78 percent injected dose/gram
- Biodistribution, PC-3 flu tumor ([2]; 60 min, N = 4): 0.72 ± 0.12 percent injected dose/gram
- Biodistribution, PC-3 flu tumor ([2]; 90 min, N = 4): 0.37 ± 0.08 percent injected dose/gram
- Biodistribution, PC-3 flu tumor ([2]; 180 min, N = 4): 0.12 0.03 percent injected dose/gram
- clearance of radioactivity from organs ([2]; after 30 min): radioactivity rapidly cleared from all organs including PC-3 PIP tumor
- Biodistribution, bladder ([2]; 30 min, N = 7): 22.4 ± 22.5 percent injected dose/gram
- Biodistribution, bladder ([2]; 60 min, N = 4): 5.50 ± 3.45 percent injected dose/gram
- Biodistribution, bladder ([2]; 90 min, N = 4): 2.11 ± 1.21 percent injected dose/gram
- Biodistribution, bladder ([2]; 180 min, N = 4): 2.74 ± 0.48 percent injected dose/gram
- Biodistribution, blood ([2]; 30 min, N = 7): 2.51 ± 1.75 percent injected dose/gram
- Biodistribution, blood ([2]; 60 min, N = 4): 1.07 ± 0.26 percent injected dose/gram
- Biodistribution, blood ([2]; 90 min, N = 4): 0.20 ± 0.14 percent injected dose/gram
- Biodistribution, blood ([2]; 180 min, N = 4): 0.08 ± 0.06 percent injected dose/gram
- Biodistribution, bone ([2]; 30 min, N = 7): 2.05 ± 2.39 percent injected dose/gram
- Biodistribution, bone ([2]; 60 min, N = 4): 0.72 ± 0.31 percent injected dose/gram
- Biodistribution, bone ([2]; 90 min, N = 4): 0.79 ± 0.16 percent injected dose/gram
- Biodistribution, bone ([2]; 180 min, N = 4): 0.63 ± 0.14 percent injected dose/gram
- Biodistribution, fat ([2]; 30 min, N = 7): 1.23 ± 1.88 percent injected dose/gram
- Biodistribution, fat ([2]; 60 min, N = 4): 0.15 ± 0.05 percent injected dose/gram
- Biodistribution, fat ([2]; 90 min, N = 4): 0.11 ± 0.06 percent injected dose/gram
- Biodistribution, fat ([2]; 180 min, N = 4): 0.04 ± 0.02 percent injected dose/gram
- Biodistribution, heart ([2]; 30 min, N = 7): 1.12 ± 0.74 percent injected dose/gram
- Biodistribution, heart ([2]; 60 min, N = 4): 0.25 ± 0.08 percent injected dose/gram
- Biodistribution, heart ([2]; 90 min, N = 4): 0.11 ± 0.02 percent injected dose/gram
- Biodistribution, heart ([2]; 180 min, N = 4): 0.07 ± 0.04 percent injected dose/gram
- Biodistribution, kidney ([2]; 30 min, N = 7): 14.2 ± 8.47 percent injected dose/gram
- Biodistribution, kidney ([2]; 60 min, N = 4): 6.97 ± 7.02 percent injected dose/gram
- Biodistribution, kidney ([2]; 90 min, N = 4): 1.51 ± 0.22 percent injected dose/gram
- Biodistribution, kidney ([2]; 180 min, N = 4): 0.50 ± 0.18 percent injected dose/gram
- Biodistribution, Lrg int. ([2]; 30 min, N = 7): 3.82 ± 5.87 percent injected dose/gram
- Biodistribution, Lrg int. ([2]; 60 min, N = 4): 0.62 ± 0.27 percent injected dose/gram
- Biodistribution, Lrg int. ([2]; 90 min, N = 4): 0.18 ± 0.03 percent injected dose/gram
- Biodistribution, Lrg int. ([2]; 180 min, N = 4): 0.16 ± 0.05 percent injected dose/gram
- Biodistribution, liver ([2]; 30 min, N = 7): 11.0 ± 1.77 percent injected dose/gram
- Biodistribution, liver ([2]; 60 min, N = 4): 12.5 ± 3.01 percent injected dose/gram
- Biodistribution, liver ([2]; 90 min, N = 4): 11.0 ± 0.87 percent injected dose/gram
- Biodistribution, liver ([2]; 180 min, N = 4): 4.62 ± 3.80 percent injected dose/gram
- Biodistribution, lung ([2]; 30 min, N = 7): 2.07 ± 1.51 percent injected dose/gram
- Biodistribution, lung ([2]; 60 min, N = 4): 0.85 ± 0.55 percent injected dose/gram
- Biodistribution, lung ([2]; 90 min, N = 4): 0.33 ± 0.05 percent injected dose/gram
- Biodistribution, lung ([2]; 180 min, N = 4): 0.14 ± 0.04 percent injected dose/gram
- Biodistribution, muscle ([2]; 30 min, N = 7): 0.86 ± 0.81 percent injected dose/gram
- Biodistribution, muscle ([2]; 60 min, N = 4): 0.27 ± 0.12 percent injected dose/gram
- Biodistribution, muscle ([2]; 90 min, N = 4): 0.06 ± 0.01 percent injected dose/gram
- Biodistribution, muscle ([2]; 180 min, N = 4): 0.03 ± 0.01 percent injected dose/gram
- Biodistribution, Sm. int. ([2]; 30 min, N = 7): 1.89 ± 1.58 percent injected dose/gram
- Biodistribution, Sm. int. ([2]; 60 min, N = 4): 0.54 ± 0.19 percent injected dose/gram
- Biodistribution, Sm. int. ([2]; 90 min, N = 4): 0.27 ± 0.11 percent injected dose/gram
- Biodistribution, Sm. int. ([2]; 180 min, N = 4): 0.08 ± 0.04 percent injected dose/gram
- Biodistribution, spleen ([2]; 30 min, N = 7): 3.76 ± 6.48 percent injected dose/gram
- Biodistribution, spleen ([2]; 60 min, N = 4): 0.45 ± 0.31 percent injected dose/gram
- Biodistribution, spleen ([2]; 90 min, N = 4): 0.27 ± 0.04 percent injected dose/gram
- Biodistribution, spleen ([2]; 180 min, N = 4): 0.13 ± 0.08 percent injected dose/gram

SMILES: O=C(O)CC[C@H](NC(=O)O[C@@H](CCCCNC(=O)c1ccc([125I])cc1)C(=O)O)C(=O)O [[^125I]31, (S)-2-(((((S)-1-carboxy-5-(4-[^125I]iodobenzamido)pentyl)oxy)carbonyl)amino) pentanedioic acid]
- radiometabolites / metabolism in cells (PC-3 PIP (PSMA+) cells): Polar radiometabolite(s) in extracellular and intracellular fluid were only seen; also recorded: observed only in PSMA+PC-3 PIP cells
